# Test results: patent US20170066741A1, “2-Amino-3,5,5-Trifluoro-3,4,5,6-Tetrahydropyridines as BACE1 Inhibitors for Treatment of Alzheimer's Disease” (H. Lundbeck A/S, priority 2014, published 2017)
# Target: T1, BACE1 enzyme (Homo sapiens, UniProt P56817)
# T1 construct: purchased Life Technologies P2985
# Assay: BACE1 efficacy assay (FRET-based, commercial BACE1 kit)
# Type: biochemical
# Details: test compound 10 μM
# Method: The efficacy assay was performed as a FRET-based assay using a commercially available BACE1 kit (Life Technologies, P2985). 2 μl test compound at 10 μM (final concentration) and 15 μl BACE1 enzyme from the kit (final concentration 3 nM) were preincubated for 15 minutes at room temperature before addition of […] of substrate from the kit (250 nM final concentration) and incubated for additional 90 minutes at room temperature. The assay plate was subsequently read in a Pherastar (Ex540/Em590). […] The efficacy of the test compounds was evaluated at 10 μM (final concentration) and defined as the percent inhibition of the enzyme activity using the equation % inhibition=100%−normalized enzyme activity in percent.
# T1 sequence (P56817 46-501): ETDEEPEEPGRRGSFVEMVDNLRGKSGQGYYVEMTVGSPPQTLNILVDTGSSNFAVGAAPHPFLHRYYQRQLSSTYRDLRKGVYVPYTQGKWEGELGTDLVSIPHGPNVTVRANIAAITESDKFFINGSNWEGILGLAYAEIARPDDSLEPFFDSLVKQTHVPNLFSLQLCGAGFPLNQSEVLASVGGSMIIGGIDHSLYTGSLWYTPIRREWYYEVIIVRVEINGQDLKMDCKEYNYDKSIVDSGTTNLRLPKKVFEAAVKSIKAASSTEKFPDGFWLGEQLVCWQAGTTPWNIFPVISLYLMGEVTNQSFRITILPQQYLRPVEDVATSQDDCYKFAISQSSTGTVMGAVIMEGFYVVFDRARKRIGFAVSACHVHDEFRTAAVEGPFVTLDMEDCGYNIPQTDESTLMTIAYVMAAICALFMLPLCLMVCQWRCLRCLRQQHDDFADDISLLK
row,inhibition at 10 µM,SMILES
1,101%,"COc1ccc(C(=O)Nc2ccc(F)c([C@@]3(C)N=C(N)[C@@](C)(F)CC3(F)F)c2)nc1 [Compound 17, N-(3-((2R,5S)-6-amino-3,3,5-trifluoro-2,5-dimethyl-2,3,4,5-tetrahydropyridin-2-yl)-4-fluorophenyl)-5-methoxypicolinamide]"
2,102%,"Cc1cc(C#N)cnc1C(=O)Nc1ccc(F)c([C@@]2(C)N=C(N)[C@@](C)(F)CC2(F)F)c1 [Compound 18, N-(3-((2R,5S)-6-amino-3,3,5-trifluoro-2,5-dimethyl-2,3,4,5-tetrahydropyridin-2-yl)-4-fluorophenyl)-5-cyano-3-methylpicolinamide]"
3,102%,"C[C@@]1(F)CC(F)(F)[C@@](C)(c2cc(NC(=O)c3ccn(C(F)F)n3)ccc2F)N=C1N [Compound 23, N-(3-((2R,5R)-6-amino-3,3,5-trifluoro-2,5-dimethyl-2,3,4,5-tetrahydropyridin-2-yl)-4-fluorophenyl)-1-(difluoromethyl)-1H-pyrazole-3-carboxamide]"
